According to US9980907B2, “Thermolabile liposome with a controlled release temperature” (Max-Planck-Gesellschaft zur Förderung der Wissenschaften …, priority 2002, dated 2018):

Assay: main transition temperature (TM) of phosphatidylcholines
Type: physicochemical
Details: phosphatidylcholine; acyl chains on positions 1 and 2 of glycero-3-phosphocholine or 1 and 3 of glycero-2-phosphocholine
Procedure: The abovementioned preferred composition of the liposome according to the invention can be tailor-made for other temperature ranges by choice of components with the main transition temperature suitable in each case. In table 1, the main transition temperatures (TM) of phosphatidylcholines whose main transition temperatures lie in the range from 0 to 80° C. are indicated.

Compound	TM (main transition temperature) [°C]
CCCCCCCCCCCCCCCCCCCC(=O)OCC(COP(=O)([O-])OCC[N+](C)(C)C)OC(=O)CCCCCCCCCCCCCCCCCCC (stereo not drawn) [1,2-diarachinoyl-]	66
CCCCCCCCCCCCCCCCCCCCCCCC(=O)OCC(COP(=O)([O-])OCC[N+](C)(C)C)OC(=O)CCCCCCCCCCCCCCCCCCCCCCC (stereo not drawn) [1,2-dilignoceroyl-]	80
CCCCCCCCCCCCCCCCCC(=O)OC[C@H](COP(=O)([O-])OCC[N+](C)(C)C)OC(=O)CCCCCCCCCCCCCCCCC [1,2-distearoyl-, 1,2-distearoyl-sn-glycero-3-phosphocholine]	56
CCCCCCCC/C=C\CCCCCCCC(=O)OC(COC(=O)CCCCCCCCCCCCCCCCCCCCC)COP(=O)([O-])OCC[N+](C)(C)C (stereo not drawn) [1-behenoyl-2-oleoyl-]	14
CCCCCCCC/C=C\CCCCCCCC(=O)OC(COC(=O)CCCCCCCCCCCCCCC)COP(=O)([O-])OCC[N+](C)(C)C (stereo not drawn) [1-palmitoyl-2-oleoyl-]	5
CCCCCCCC/C=C\CCCCCCCC(=O)OC(COC(=O)CCCCCCCCCCCCCCCCC)COP(=O)([O-])OCC[N+](C)(C)C (stereo not drawn) [1-stearoyl-2-oleoyl-]	7

Continued, values first:

TM (main transition temperature) [°C]	Compound
23	CCCCCCCCCCCCCC(=O)OCC(COP(=O)([O-])OCC[N+](C)(C)C)OC(=O)CCCCCCCCCCCCC (stereo not drawn) [1,2-dimyristoyl-]
41	CCCCCCCCCCCCCCCC(=O)OC[C@H](COP(=O)([O-])OCC[N+](C)(C)C)OC(=O)CCCCCCCCCCCCCCC [1,2-dipalmitoyl-, 1,2-dipalmitoyl-sn-glycero-3-phosphocholine]
11	CCCCCCCCCCCCCCCC(=O)OCC(COP(=O)([O-])OCC[N+](C)(C)C)OC(=O)CCCCCCCCCCC (stereo not drawn) [1-palmitoyl-2-lauroyl-]
27	CCCCCCCCCCCCCCCC(=O)OCC(COP(=O)([O-])OCC[N+](C)(C)C)OC(=O)CCCCCCCCCCCCC (stereo not drawn) [1-palmitoyl-2-myristoyl-]
17	CCCCCCCCCCCCCCCCCC(=O)OCC(COP(=O)([O-])OCC[N+](C)(C)C)OC(=O)CCCCCCCCCCC (stereo not drawn) [1-stearoyl-2-lauroyl-]
33	CCCCCCCCCCCCCCCCCC(=O)OCC(COP(=O)([O-])OCC[N+](C)(C)C)OC(=O)CCCCCCCCCCCCC (stereo not drawn) [1-stearoyl-2-myristoyl-]
